{"source": "paper PMC9683716", "about": "(Science Advances, 2022)", "key": {"Drosophila flies": {"system": "Drosophila flies", "assay": "Climbing assay", "format": "in vivo, Drosophila melanogaster"}, "[1]": {"target": "T1, recombinant Drosophila Naam (Drosophila melanogaster, UniProt Q9VDU7)", "T1 sequence (Q9VDU7 1-357)": "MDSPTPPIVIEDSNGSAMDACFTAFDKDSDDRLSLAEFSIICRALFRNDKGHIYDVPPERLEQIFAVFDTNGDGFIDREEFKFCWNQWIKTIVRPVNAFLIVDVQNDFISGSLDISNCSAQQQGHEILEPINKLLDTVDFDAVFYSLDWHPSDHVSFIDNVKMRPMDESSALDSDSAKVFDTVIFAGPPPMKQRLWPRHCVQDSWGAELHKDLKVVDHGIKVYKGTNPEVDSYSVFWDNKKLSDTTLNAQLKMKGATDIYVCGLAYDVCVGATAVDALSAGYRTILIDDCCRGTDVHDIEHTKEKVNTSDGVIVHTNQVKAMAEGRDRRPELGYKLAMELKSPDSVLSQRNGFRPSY", "assay": "Naam enzyme activity and inhibition assay", "format": "biochemical"}, "[2]": {"system": "C. elegans N2 Bristol strain", "assay": "Egg-laying assay", "format": "in vivo, Caenorhabditis elegans", "conditions": "wild-type nematodes, high concentrations"}, "[3]": {"target": "T2, recombinant Naam T294E mutant (Drosophila melanogaster, UniProt Q9VDU7, T294E)", "T2 sequence (Q9VDU7 1-357 T294E)": "T1 sequence (Q9VDU7 1-357) with T294E", "format": "biochemical"}, "[4]": {"target": "Myzus persicae (aphid) Naam", "assay": "Naam inhibition assay, aphid Naam", "format": "biochemical"}, "[5]": {"target": "Nilaparvata lugens (planthopper) Naam", "assay": "Naam inhibition assay, planthopper Naam", "format": "biochemical"}, "[6]": {"target": "T3, Aedes albopictus (mosquito) Naam (Aedes albopictus, UniProt A0ABM2A4C4)", "T3 sequence (A0ABM2A4C4 1-377)": "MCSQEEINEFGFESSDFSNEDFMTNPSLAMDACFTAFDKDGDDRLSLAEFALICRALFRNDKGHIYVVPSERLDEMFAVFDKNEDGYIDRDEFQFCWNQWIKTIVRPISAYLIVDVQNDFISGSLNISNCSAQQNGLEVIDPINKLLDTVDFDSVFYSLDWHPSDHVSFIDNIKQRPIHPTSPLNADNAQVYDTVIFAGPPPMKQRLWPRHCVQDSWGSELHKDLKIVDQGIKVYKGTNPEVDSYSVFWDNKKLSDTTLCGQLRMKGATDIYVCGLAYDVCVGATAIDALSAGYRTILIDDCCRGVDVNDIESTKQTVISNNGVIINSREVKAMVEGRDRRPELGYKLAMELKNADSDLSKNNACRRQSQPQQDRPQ", "assay": "Naam inhibition assay, mosquito Naam", "format": "biochemical"}, "[7]": {"target": "T4, Apis mellifera (honey bee) Naam2 (Apis mellifera, UniProt A0A7M7MP11)", "T4 sequence (A0A7M7MP11 1-346)": "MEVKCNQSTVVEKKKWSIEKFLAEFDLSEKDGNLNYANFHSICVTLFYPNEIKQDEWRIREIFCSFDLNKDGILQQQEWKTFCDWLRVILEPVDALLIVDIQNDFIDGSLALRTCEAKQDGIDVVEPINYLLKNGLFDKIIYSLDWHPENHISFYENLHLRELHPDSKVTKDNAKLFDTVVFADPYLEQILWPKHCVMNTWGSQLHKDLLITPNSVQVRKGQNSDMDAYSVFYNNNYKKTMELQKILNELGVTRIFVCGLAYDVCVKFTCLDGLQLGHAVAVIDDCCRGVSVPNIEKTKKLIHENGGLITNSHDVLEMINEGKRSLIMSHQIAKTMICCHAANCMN", "assay": "Naam enzyme activity and inhibition assay, honey bee Naam2", "format": "biochemical"}, "C. elegans PNC-1": {"target": "T5, C. elegans PNC-1 (Caenorhabditis elegans, UniProt Q9N426)", "T5 sequence (Q9N426 25-335)": "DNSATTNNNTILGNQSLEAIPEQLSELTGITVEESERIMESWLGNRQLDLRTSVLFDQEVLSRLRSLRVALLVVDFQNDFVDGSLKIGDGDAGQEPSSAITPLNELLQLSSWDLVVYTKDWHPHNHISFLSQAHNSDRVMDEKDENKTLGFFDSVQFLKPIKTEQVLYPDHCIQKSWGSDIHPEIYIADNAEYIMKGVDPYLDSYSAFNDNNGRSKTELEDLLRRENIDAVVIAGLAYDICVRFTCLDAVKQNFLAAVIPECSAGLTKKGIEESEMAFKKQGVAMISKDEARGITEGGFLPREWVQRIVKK", "assay": "Naam inhibition assay, C. elegans PNC-1", "format": "biochemical"}, "C. elegans PNC-2": {"target": "T6, C. elegans PNC-2 (Caenorhabditis elegans, UniProt Q7YTI0)", "T6 sequence (Q7YTI0 1-316)": "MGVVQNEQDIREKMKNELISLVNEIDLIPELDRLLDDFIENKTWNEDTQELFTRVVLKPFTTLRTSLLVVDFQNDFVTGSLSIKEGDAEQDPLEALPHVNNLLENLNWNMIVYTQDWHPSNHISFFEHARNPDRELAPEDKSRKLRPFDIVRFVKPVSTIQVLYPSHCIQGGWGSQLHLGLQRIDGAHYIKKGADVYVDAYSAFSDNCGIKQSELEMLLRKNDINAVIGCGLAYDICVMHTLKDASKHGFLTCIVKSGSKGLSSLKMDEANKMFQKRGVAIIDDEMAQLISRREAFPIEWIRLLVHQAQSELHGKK", "assay": "Naam inhibition assay, C. elegans PNC-2", "format": "biochemical"}, "B. burgdorferi PncA": {"target": "B. burgdorferi PncA (Borreliella burgdorferi, UniProt G1FKW2)", "assay": "Naam inhibition assay, B. burgdorferi PncA", "format": "biochemical, Borrelia burgdorferi"}, "[8]": {"target": "T7, recombinant Naam A265E mutant (Drosophila melanogaster, UniProt Q9VDU7, A265E)", "T7 sequence (Q9VDU7 1-357 A265E)": "T1 sequence (Q9VDU7 1-357) with A265E"}, "mice": {"system": "mice", "conditions": "cited from earlier work"}, "Nan-Iav TRPV channels": {"system": "Nan-Iav TRPV channels", "conditions": "cited from earlier work"}}, "note": "Numbering of substitutions follows the chain as printed. Where “and” joins values, the source holds several entries; their conditions need not be identical. Identical values can stand only once."}
{"molecule": "CC1=NNC(=O)N(/N=C/c2cccnc2)C1", "note": "[pymetrozine]", "values": [{"measurement": "sensitivity of Naam knockdown flies", "setting": "Drosophila flies; in vivo", "result": "still sensitive"}]}
{"molecule": "O=Cc1cccnc1", "note": "[NAH, Nicotinaldehyde]", "values": [{"measurement": "effect on flies in climbing assays", "setting": "Drosophila flies; even at 5 mM", "result": "no significant effect"}, {"measurement": "Ki", "setting": "[1]", "result": 330, "unit": "nM"}, {"measurement": "number of eggs laid", "setting": "[2]", "result": "significantly reduced the number of eggs laid"}]}
{"molecule": "CC(=O)N1C(=O)N(NCc2cccnc2)Cc2cc(C(F)(C(F)(F)F)C(F)(F)F)ccc21", "note": "[pyrifluquinazon]", "values": [{"measurement": "sensitivity of Naam knockdown flies", "setting": "Drosophila flies; in vivo", "result": "still sensitive"}]}
{"molecule": "O=Cc1cnccc1C(F)(F)F", "note": "[TNAH, 4-(trifluoromethyl)nicotinaldehyde]", "values": [{"measurement": "number of eggs laid", "setting": "[2]", "result": "significantly reduced the number of eggs laid"}]}
{"molecule": "NC(=O)c1cnccc1C(F)(F)F", "note": "[TFNA-AM, 4-trifluoromethylnicotinamide]", "values": [{"measurement": "reduction of climbing ability compared with FL", "setting": "Drosophila flies; 2 mM, after 1 hour of feeding, score at 30 s", "result": "more effective than FL"}, {"measurement": "difference to FL in reduction of climbing ability", "setting": "Drosophila flies; 2 mM, after 3 hours of feeding, score at 30 s", "result": "not significant"}, {"measurement": "effect on climbing scores in combination with NAM", "setting": "Drosophila flies; 10 or 20 μM combined with NAM", "result": "significantly synergized the toxicity of NAM"}, {"measurement": "negative geotaxis (climbing index at 30 s)", "setting": "Drosophila flies; control flies, 2 mM for 3 hours", "result": "< 15", "unit": "%"}, {"measurement": "climbing index (at 30 s)", "setting": "Drosophila flies; in vivo", "result": "68% and 52%"}, {"measurement": "concentration that suppressed negative geotaxis", "setting": "Drosophila flies; in vivo", "result": "≥ 20", "unit": "µM"}, {"measurement": "effect of Naam knockdown on climbing index", "setting": "Drosophila flies; in vivo", "result": "had no effect"}, {"measurement": "effect on negative geotaxis", "setting": "Drosophila flies; in vivo", "result": "virtually abolished"}, {"measurement": "effect on negative geotaxis of Naam^A265E flies", "setting": "Drosophila flies; in vivo", "result": "did not impair negative geotaxis"}, {"measurement": "sensitivity of heterozygous control flies in climbing assays", "setting": "Drosophila flies; in vivo", "result": "as sensitive as wild-type flies"}, {"measurement": "effect on climbing scores, alone", "setting": "Drosophila flies; low doses (10 or 20 μM) alone", "result": "negligible effects"}, {"measurement": "Ki", "setting": "[1]", "result": 720, "unit": "nM"}, {"measurement": "enzymatic activity of Naam in the presence of compound", "setting": "[1]; 100 μM", "result": "markedly reduced the enzyme activity"}, {"measurement": "resistance based on increase in Ki vs wild-type Naam", "setting": "[3]", "result": 7.5, "unit": "fold"}, {"measurement": "Ki", "setting": "[4]", "result": 80, "unit": "nM"}, {"measurement": "Ki", "setting": "[5]", "result": 600, "unit": "nM"}, {"measurement": "Ki", "setting": "[6]", "result": 1090, "unit": "nM"}, {"measurement": "Ki", "setting": "[7]", "result": 16700, "unit": "nM"}, {"measurement": "fold less sensitive than the honey bee Naam1", "setting": "[7]; Ki Naam2 vs Naam1", "result": 21, "unit": "fold"}, {"measurement": "fold less sensitive than the aphid Naam", "setting": "[7]; Ki Naam2 vs aphid Naam", "result": 209, "unit": "fold"}, {"measurement": "sensitivity of PNC-1", "setting": "C. elegans PNC-1", "result": "neither PNC-1 nor PNC-2 was sensitive"}, {"measurement": "sensitivity of PNC-2", "setting": "C. elegans PNC-2", "result": "neither PNC-1 nor PNC-2 was sensitive"}, {"measurement": "Ki", "setting": "B. burgdorferi PncA", "result": 2370, "unit": "nM"}, {"measurement": "resistance based on increase in Ki vs wild-type Naam", "setting": "[8]", "result": 415.7, "unit": "fold"}, {"measurement": "LD50 (median lethal dose)", "setting": "mice", "result": "> 2000", "unit": "mg/kg"}, {"measurement": "activation of heterologously expressed Nan-Iav TRPV channels", "setting": "Nan-Iav TRPV channels", "result": "neither FL nor its metabolite TFNA-AM activates"}]}
{"molecule": "NC(=O)c1cccnc1", "note": "[NAM, nicotinamide]", "values": [{"measurement": "effect on climbing scores", "setting": "Drosophila flies; 2 or 5 mM", "result": "no significant effect"}, {"measurement": "effect on climbing scores", "setting": "Drosophila flies; feeding high concentrations (> 10 mM)", "result": "reduced the climbing scores"}, {"measurement": "turnover number relative to wild-type Naam", "setting": "[8]; A265E substitution", "result": "~ 22%"}]}
